Peptide text beside a SMILES is read from it.
Assays:
[1] = system: spleen cells from a NMRI mouse; assay: LAF assay, lymphocyte or thymocyte proliferating activity (3H-thymidine incorporation); format: cell-based; conditions: 48 h + 16 h with 3H-thymidine
[2] = system: antibodies in rabbit sera; assay: ELISA, reaction between the synthetic peptide (BSA-coupled coating antigen) and antibodies in rabbit sera; format: binding; conditions: goat anti-rabbit conjugate 1/500, plates read after 3 min, peptide coupled to BSA as coating antigen
antibodies in human sera = assay: ELISA, reaction between the synthetic peptide (BSA-coupled coating antigen) and antibodies in human sera; format: binding; conditions: swine anti-human conjugate 1/100, plates read after 20 min, peptide coupled to BSA as coating antigen
[3] = system: alkaline phosphatase goat anti-rabbit Ig conjugate; assay: ELISA, reaction between the synthetic peptide and conjugate only (goat anti-rabbit); format: binding; conditions: no serum, plates read after 5 min
Method: (§1) The above synthesized peptide was coupled to a carrier, i.e. bovine serum albumin (BSA) in the following manner to form a peptide antigen (coating antigen) which was used in ELISA.
(§2) Fractions containing coupled material were pooled and the pooled material was used in ELISA as coating antigen and was added directly, without any previous dilution, to the microplate.
(§3) PERFORMANCE 1. Coating of microplates. Microplates were incubated with 0.1 ml of antigen in PBS at room temperature (20°-25° C.) over night.
(§4) 2. Incubation with bovine serum albumin (BSA) and serum. The plates were washed four times and then incubated with 0.1 ml of 1% (w/v) BSA in PBS at 37° C. for one hour. After washing, 0.1 ml of serum appropriately diluted in incubation buffer, was added to the wells and the plate(s) was incubated at room temperature for one hour.
(§5) 3. Incubation with conjugate. After washing, 0.1 ml of conjugate appropiately diluted in incubation buffer, was added to the wells and the plate(s) was incubated at room temperature for two hours.
(§6) 4. After washing, 0.1 ml of the enzyme substrate solution was added to the wells. The plates were kept at room temperature and the absorbance at 405 nm was read after the time indicated below. […]
(§7) The plates were read at times indicated below in an automated ELISA-reader (Titertek, Multiscan). […]

[4] = system: alkaline phosphatase swine anti-human IgG conjugate; assay: ELISA, reaction between the synthetic peptide and conjugate only (swine anti-human); format: binding; conditions: no serum, plates read after 13 min
Method: as §1, §2, §3, §4, §5, §6, §7

alkaline phosphatase = assay: Similar ELISA experiment where enzyme alone was used; format: binding; conditions: enzyme alone instead of conjugate
Excerpt: That the synthesized peptide reacted with and bound to the respective conjugate was further shown by the ability of the conjugates alone to bind the peptide.

purified pertussis toxin [5] = assay: Immunization of mice with the synthetic peptide, ELISA of sera against native pertussis toxin; format: in vivo, mice (NMRI); conditions: sera two months after third dose
purified pertussis toxin [6] = assay: Challenge of immunized mice with purified pertussis toxin, survival; format: in vivo, mice (NMRI); conditions: challenge 20 μg/mouse=5×LD50

## Phytohaemagglutinin [PHA]
[1]; 2.5 μg per well
  cpm (range of triplicates): 6700-8100 cpm
[1]; 5 μg per well
  cpm (range of triplicates): 9800-10400 cpm
[1]; 7 μg per well
  cpm (range of triplicates): 7000-8100 cpm

## CC(C)[C@H](NC(=O)[C@H](CO)NC(=O)[C@H](CCCNC(=N)N)NC(=O)[C@H](CCCNC(=N)N)NC(=O)[C@H](CO)NC(=O)[C@@H](NC(=O)[C@H](Cc1ccc(O)cc1)NC(=O)[C@@H]1CCCN1C(=O)[C@H](CC(N)=O)NC(=O)[C@@H]1CCCN1C(=O)[C@H](CC(N)=O)NC(=O)[C@H](C)NC(=O)[C@H](CCCNC(=N)N)NC(=O)[C@@H](NC(=O)[C@H](CCC(N)=O)NC(=O)[C@@H](N)CCCCN)[C@@H](C)O)[C@@H](C)O)C(=O)N[C@@H](C)C(=O)N[C@@H](CO)C(=O)O [The synthetic peptide, H--Lys--Gln--Thr--Arg--Ala--Asn--Pro--Asn--Pro--Tyr--Thr----Ser--Arg--Arg--Ser--Val--Ala--Ser--OH] (H-KQTRANPNPYTSRRSVAS-OH)
[2]; serum Rabbit 1 diluted 1/500
  Absorbance at 405 nm: 1.21
[2]; serum Rabbit 2 diluted 1/500
  Absorbance at 405 nm: 1.05
Antibodies in human sera; serum Human 1 (one individual) diluted 1/500
  Absorbance at 405 nm: 1.11
Antibodies in human sera; serum Human 2 (pool of human sera) diluted 1/500
  Absorbance at 405 nm: 1.26
[3]
  Absorbance at 405 nm: 1.23
[4]
  Absorbance at 405 nm: 0.84
Alkaline phosphatase
  Binding of the peptide to alkaline phosphatase enzyme alone: no binding was observed
[1]; 1 μg per well
  cpm (range of triplicates): 3000-4200 cpm
[1]; 10 μg per well
  cpm (range of triplicates): 7000-8500 cpm
Purified pertussis toxin [5]; endpoint titre against pertussis toxin, cut off absorbance 0.1, 17 mice
  Mean Titre: 2334
Purified pertussis toxin [5]; endpoint titre against pertussis toxin, cut off absorbance 0.1
  Titre Range: 320-40960
Purified pertussis toxin [5]; of 17 mice, s.c. 3×0.5 ml BSA-coupled peptide antigen on aluminium hydroxide, one month apart
  Responders: 15
Purified pertussis toxin [6]; immunized mice with endpoint titre 80-40960 (17 mice)
  Days of survival (mean): 3.765 days
Purified pertussis toxin [6]; immunized mice with endpoint titre 320-40960 (15 mice)
  Days of survival (mean): 4.000 days
Purified pertussis toxin [6]; immunized mice with endpoint titre 640-40960 (14 mice)
  Days of survival (mean): 3.929 days
Purified pertussis toxin [6]; immunized mice with endpoint titre 1280-40960 (10 mice)
  Days of survival (mean): 4.600 days
Purified pertussis toxin [6]; immunized mice with endpoint titre 2560-40960 (8 mice)
  Days of survival (mean): 4.875 days
Purified pertussis toxin [6]; immunized mice with endpoint titre 5120-40960 (6 mice)
  Days of survival (mean): 5.333 days
Purified pertussis toxin [6]; immunized mice with endpoint titre 10240-40960 (3 mice)
  Days of survival (mean): 6.333 days

From patent publication US5283321A (priority 1986, dated 1994)
